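Results reflect a 48-hour exposure of cells in 96-well plates to compound at five concentrations. TGI: total growth inhibition.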
Assays:
Assay in all cases: NCI tumour cell line growth inhibition, 48 h
A498 renal = system: A498 renal
A549 NSCLC = system: A549 NSCLC
CCRF-CEM leukemia = system: CCRF-CEM leukemia
COLO 205 colon = system: COLO 205 colon
DLD-1 colon = system: DLD-1 colon
DMS 114 small cell lung = system: DMS 114 small cell lung
DMS 273 small cell lung = system: DMS 273 small cell lung
EKVX NSCLC = system: EKVX NSCLC
HCC-2998 colon = system: HCC-2998 colon
HCT-116 colon = system: HCT-116 colon
HCT-15 colon = system: HCT-15 colon
HL-60(TB) leukemia = system: HL-60(TB) leukemia
HOP-18 NSCLC = system: HOP-18 NSCLC
HOP-62 NSCLC = system: HOP-62 NSCLC
HOP-92 NSCLC = system: HOP-92 NSCLC
HT29 colon = system: HT29 colon
IGROV1 ovarian = system: IGROV1 ovarian
K-562 leukemia = system: K-562 leukemia
KM12 colon = system: KM12 colon
KM20L2 colon = system: KM20L2 colon
LOX IMVI melanoma = system: LOX IMVI melanoma
M19-MEL melanoma = system: M19-MEL melanoma
MALME-3M melanoma = system: MALME-3M melanoma
MCF7 breast = system: MCF7 breast
MOLT-4 leukemia = system: MOLT-4 leukemia
NCI-H226 lung = system: NCI-H226 lung
NCI-H23 lung = system: NCI-H23 lung
NCI-H460 lung = system: NCI-H460 lung
NCI-H522 lung = system: NCI-H522 lung
NCI/ADR-RES ovarian = system: NCI/ADR-RES ovarian
OVCAR-3 ovarian = system: OVCAR-3 ovarian
OVCAR-4 ovarian = system: OVCAR-4 ovarian
OVCAR-5 ovarian = system: OVCAR-5 ovarian
OVCAR-8 ovarian = system: OVCAR-8 ovarian
P388 leukemia = system: P388 leukemia
P388/ADR leukemia = system: P388/ADR leukemia
RPMI-8226 leukemia = system: RPMI-8226 leukemia
RXF 393 renal = system: RXF 393 renal
SF-268 CNS = system: SF-268 CNS
SF-295 CNS = system: SF-295 CNS
SF-539 CNS = system: SF-539 CNS
SK-MEL-2 melanoma = system: SK-MEL-2 melanoma
SK-MEL-28 melanoma = system: SK-MEL-28 melanoma
SK-MEL-5 melanoma = system: SK-MEL-5 melanoma
SK-OV-3 ovarian = system: SK-OV-3 ovarian
SN12C renal = system: SN12C renal
SN12K1 renal = system: SN12K1 renal
SNB-19 CNS = system: SNB-19 CNS
SNB-75 CNS = system: SNB-75 CNS
SNB-78 CNS = system: SNB-78 CNS
SW-620 colon = system: SW-620 colon
U251 CNS = system: U251 CNS
UACC-257 melanoma = system: UACC-257 melanoma
UACC-62 melanoma = system: UACC-62 melanoma
UO-31 renal = system: UO-31 renal
XF 498 CNS = system: XF 498 CNS

O=[N+]([O-])c1ccc2[nH]c3c(-c4ccccc4)nccc3c2c1
TGI (A498 renal): > 100 µM | TGI (A549 NSCLC): > 62 µM | TGI (CCRF-CEM leukemia): 62.7 µM | TGI (COLO 205 colon): > 86.8 µM | TGI (DLD-1 colon): > 94.3 µM | TGI (DMS 114 small cell lung): > 87.2 µM | TGI (DMS 273 small cell lung): 18.1 µM | TGI (EKVX NSCLC): > 79.3 µM | TGI (HCC-2998 colon): 71 µM | TGI (HCT-116 colon): > 51.8 µM | TGI (HCT-15 colon): > 74.7 µM | TGI (HL-60(TB) leukemia): 26.4 µM | TGI (HOP-18 NSCLC): 61.9 µM | TGI (HOP-62 NSCLC): 43 µM | TGI (HOP-92 NSCLC): 65.9 µM | TGI (HT29 colon): > 100 µM | TGI (IGROV1 ovarian): 48.6 µM | TGI (K-562 leukemia): > 100 µM | TGI (KM12 colon): > 100 µM | TGI (KM20L2 colon): > 100 µM | TGI (LOX IMVI melanoma): > 100 µM | TGI (M19-MEL melanoma): > 78.4 µM | TGI (MALME-3M melanoma): 50.7 µM | TGI (MCF7 breast): > 60.3 µM | TGI (MOLT-4 leukemia): 16.4 µM | TGI (NCI-H226 lung): 50.5 µM | TGI (NCI-H23 lung): > 100 µM | TGI (NCI-H460 lung): 40.9 µM | TGI (NCI-H522 lung): 37.4 µM | TGI (NCI/ADR-RES ovarian): > 65.1 µM | TGI (OVCAR-3 ovarian): 39.4 µM | TGI (OVCAR-4 ovarian): > 63.1 µM | TGI (OVCAR-5 ovarian): > 100 µM | TGI (OVCAR-8 ovarian): > 58.7 µM | TGI (P388 leukemia): > 47.3 µM | TGI (P388/ADR leukemia): 31.4 µM | TGI (RPMI-8226 leukemia): > 100 µM | TGI (RXF 393 renal): > 96.2 µM | TGI (SF-268 CNS): > 80 µM | TGI (SF-295 CNS): 45.7 µM | TGI (SF-539 CNS): > 100 µM | TGI (SK-MEL-2 melanoma): 76.6 µM | TGI (SK-MEL-28 melanoma): > 85.3 µM | TGI (SK-MEL-5 melanoma): > 61.1 µM | TGI (SK-OV-3 ovarian): 55.7 µM | TGI (SN12C renal): > 84.6 µM | TGI (SN12K1 renal): 79.9 µM | TGI (SNB-19 CNS): 58.5 µM | TGI (SNB-75 CNS): 38.3 µM | TGI (SNB-78 CNS): 93.1 µM | TGI (SW-620 colon): > 89.7 µM | TGI (U251 CNS): > 64.9 µM | TGI (UACC-257 melanoma): 89.4 µM | TGI (UACC-62 melanoma): 38.6 µM | TGI (UO-31 renal): 44.4 µM | TGI (XF 498 CNS): > 61.7 µM

— PubChem BioAssay (NCI)
